Results taken from patent publication US11970473B2, “Nootkatone derivatives and methods of using the same” (Arkansas State University—Jonesboro, priority 2021, dated 2024).
≈ marks a conversion by molar mass, not a printed value.

What was measured:
[1] = tested on: SNB-75; experiment: NCI-60 cancer screen; type: cell-based, human; conditions: SNB-75, CNS Cancer; 10 μM
[2] = tested on: M14; experiment: NCI-60 cancer screen; type: cell-based, human; conditions: M14, Melanoma; 10 μM
[3] = tested on: SF-295; experiment: NCI-60 cancer screen; type: cell-based, human; conditions: SF-295, CNS Cancer; 10 μM
[4] = tested on: MDA-MB-231/ATCC; experiment: NCI-60 cancer screen; type: cell-based, human; conditions: Breast Cancer, 10 μM
[5] = tested on: DU-145; experiment: NCI-60 cancer screen; type: cell-based, human; conditions: DU-145, Prostate Cancer; 10 μM
[6] = tested on: COLO 205; experiment: NCI-60 cancer screen; type: cell-based, human; conditions: COLO 205, Colon Cancer; 10 μM
[7] = tested on: K-562; experiment: NCI-60 cancer screen; type: cell-based, human; conditions: K-562, Leukemia; 10 μM
[8] = tested on: NCI-60 cancer cell lines; experiment: NCI-60 cancer screen (whole panel); type: cell-based, human; conditions: 10 μM
[9] = tested on: SK-MEL-28; experiment: NCI-60 cancer screen; type: cell-based, human; conditions: SK-MEL-28, Melanoma; 10 μM
[10] = tested on: OVCAR-8; experiment: NCI-60 cancer screen; type: cell-based, human; conditions: OVCAR-8, Ovarian Cancer; 10 μM
[11] = tested on: SR; experiment: NCI-60 cancer screen; type: cell-based, human; conditions: Leukemia, 10 μM
[12] = tested on: SF-539; experiment: NCI-60 cancer screen; type: cell-based, human; conditions: SF-539, CNS Cancer; 10 μM
[13] = tested on: RXF 393; experiment: NCI-60 cancer screen; type: cell-based, human; conditions: RXF 393, Renal Cancer; 10 μM
[14] = tested on: CAKI-1; experiment: NCI-60 cancer screen; type: cell-based, human; conditions: CAKI-1, Renal Cancer; 10 μM
[15] = tested on: BT-549; experiment: NCI-60 cancer screen; type: cell-based, human; conditions: BT-549, Breast Cancer; 10 μM
[16] = tested on: HCT-15; experiment: NCI-60 cancer screen; type: cell-based, human; conditions: HCT-15, Colon Cancer; 10 μM
[17] = tested on: OVCAR-3; experiment: NCI-60 cancer screen; type: cell-based, human; conditions: OVCAR-3, Ovarian Cancer; 10 μM
[18] = tested on: NCI-H460; experiment: NCI-60 cancer screen; type: cell-based, human; conditions: NCI-H460, Non-Small Cell Lung Cancer; 10 μM
[19] = tested on: SW-620; experiment: NCI-60 cancer screen; type: cell-based, human; conditions: SW-620, Colon Cancer; 10 μM
[20] = tested on: KM12; experiment: NCI-60 cancer screen; type: cell-based, human; conditions: KM12, Colon Cancer; 10 μM
[21] = tested on: A498; experiment: NCI-60 cancer screen; type: cell-based, human; conditions: A498, Renal Cancer; 10 μM
[22] = tested on: MDA-MB-468; experiment: NCI-60 cancer screen; type: cell-based, human; conditions: MDA-MB-468, Breast Cancer; 10 μM
[23] = tested on: PC-3; experiment: NCI-60 cancer screen; type: cell-based, human; conditions: PC-3, Prostate Cancer; 10 μM
[24] = tested on: HCC-2998; experiment: NCI-60 cancer screen; type: cell-based, human; conditions: HCC-2998, Colon Cancer; 10 μM
[25] = tested on: S. aureus strains; experiment: MIC, summary over S. aureus strains; type: cell-based; conditions: Staphylococcus aureus; lowest MIC over S. aureus strains; read-out: minimum inhibitory concentration (MIC) value as low as
Protocol: Minimal inhibitory concentration (MIC) assay The standard microdilution method recommended by the Clinical and Laboratory Standards Institute (CLSI) was used to determine the MIC of the antibiotics. The starting concentration of compounds was 50 μg/ml and 2-fold dilution was done down the 96 honeycomb well plate column. The MIC assay was conducted in triplicates.

[26] = tested on: 786-0; experiment: NCI-60 cancer screen; type: cell-based, human; conditions: 786-0, Renal Cancer; 10 μM
[27] = tested on: HL-60(TB); experiment: NCI-60 cancer screen; type: cell-based, human; conditions: Leukemia, 10 μM
[28] = tested on: IGROV1; experiment: NCI-60 cancer screen; type: cell-based, human; conditions: IGROV1, Ovarian Cancer; 10 μM
[29] = tested on: SK-OV-3; experiment: NCI-60 cancer screen; type: cell-based, human; conditions: SK-OV-3, Ovarian Cancer; 10 μM
[30] = tested on: A549/ATCC; experiment: NCI-60 cancer screen; type: cell-based, human; conditions: Non-Small Cell Lung Cancer, 10 μM
[31] = tested on: HT29; experiment: NCI-60 cancer screen; type: cell-based, human; conditions: HT29, Colon Cancer; 10 μM
[32] = tested on: HOP-92; experiment: NCI-60 cancer screen; type: cell-based, human; conditions: HOP-92, Non-Small Cell Lung Cancer; 10 μM
[33] = tested on: ACHN; experiment: NCI-60 cancer screen; type: cell-based, human; conditions: Renal Cancer, 10 μM
[34] = tested on: SNB-19; experiment: NCI-60 cancer screen; type: cell-based, human; conditions: SNB-19, CNS Cancer; 10 μM
[35] = tested on: OVCAR-5; experiment: NCI-60 cancer screen; type: cell-based, human; conditions: OVCAR-5, Ovarian Cancer; 10 μM

## C=C(C)[C@@H]1CC=C2c3sc(-c4ccc(O)cc4)nc3C[C@@H](C)[C@]2(C)C1 [Compound 15, 4-[(5R,5aS,7R)-7-isopropenyl-5,5a-dimethyl-5,6,7,8-tetrahydro-4H-benzo[g][1,3]benzothiazol-2-yl]phenol]
[1]
  Growth Percent: 87.74%
[2]
  Growth Percent: 98.96%
[3]
  Growth Percent: 92.61%
[4]
  Growth Percent: 101.25%
[5]
  Growth Percent: 104.97%
[6]
  Growth Percent: 118.41%
[7]
  Growth Percent: 92.07%
[8]; delta over panel
  Growth Percent, Delta: 16.54%
[8]; mean over panel
  Growth Percent, Mean: 100.94%
[8]; range over panel
  Growth Percent, Range: 34.01%
[9]
  Growth Percent: 106.43%
[10]
  Growth Percent: 98.85%
[11]
  Growth Percent: 113.66%
[12]
  Growth Percent: 101.06%
[13]
  Growth Percent: 113.93%
[14]
  Growth Percent: 99.88%
[15]
  Growth Percent: 115.53%
[16]
  Growth Percent: 100.28%
[17]
  Growth Percent: 102.89%
[18]
  Growth Percent: 104.69%
[19]
  Growth Percent: 103.38%
[20]
  Growth Percent: 103.49%
[21]
  Growth Percent: 107.24%
[22]
  Growth Percent: 102.12%
[23]
  Growth Percent: 94.38%
[24]
  Growth Percent: 100.46%
[25]
  MIC: 6.25 µg/mL (≈ 17.8 µM)
[26]
  Growth Percent: 101.31%
[27]
  Growth Percent: 100.82%
[28]
  Growth Percent: 102.22%
[29]
  Growth Percent: 109.13%
[30]
  Growth Percent: 95.55%
[31]
  Growth Percent: 105.86%
[32]
  Growth Percent: 96.54%
[33]
  Growth Percent: 100.09%
[34]
  Growth Percent: 93.47%
[35]
  Growth Percent: 106.63%
